Laboratory results published in US11034715B2, “Ectonucleotidase inhibitors and methods of use thereof” (Calithera Biosciences, Inc., priority 2016, dated 2021).

The compounds below were run against recombinant CD73 (Homo sapiens (Human), UniProt P21589) (assay: Inhibition of the CD73 enzyme in vitro (soluble recombinant CD73, AMP, Malachite Green)). Conditions: recombinant CD73 0.5 nM, AMP 50 μM, 30 minutes at room temperature.
Assay type: biochemical
Procedure: The concentration of inorganic phosphate was determined using a phosphate standard curve.

Sequence of recombinant CD73 (P21589 27-547): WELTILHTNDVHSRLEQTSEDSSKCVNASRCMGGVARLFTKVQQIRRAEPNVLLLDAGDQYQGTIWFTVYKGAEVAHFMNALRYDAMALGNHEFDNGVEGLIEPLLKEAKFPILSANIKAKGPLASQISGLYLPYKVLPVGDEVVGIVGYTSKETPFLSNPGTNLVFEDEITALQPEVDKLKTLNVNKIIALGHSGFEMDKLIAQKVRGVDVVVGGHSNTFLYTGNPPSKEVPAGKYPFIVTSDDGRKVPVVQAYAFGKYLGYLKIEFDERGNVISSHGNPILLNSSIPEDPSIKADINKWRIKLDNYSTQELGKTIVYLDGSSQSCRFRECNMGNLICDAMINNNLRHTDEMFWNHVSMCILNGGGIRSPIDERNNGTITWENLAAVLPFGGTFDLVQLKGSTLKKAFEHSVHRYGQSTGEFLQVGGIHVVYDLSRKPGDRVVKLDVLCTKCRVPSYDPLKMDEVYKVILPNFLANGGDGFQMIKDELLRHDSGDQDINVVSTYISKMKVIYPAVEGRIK

Point of comparison: `CS(=O)(=O)c1ccc(CC(OC[C@H]2O[C@@H](n3cnc4c(N)nc(Cl)nc43)[C@@H](F)[C@@H]2O)(C(=O)O)C(=O)O)cc1` [compound 153], IC50 74 nM. Against it:
- COc1ccc(CC(OC[C@H]2O[C@@H](n3cnc4c(N)nc(Cl)nc43)[C@@H](F)[C@@H]2O)(C(=O)O)C(=O)O)cc1Cl [compound 85, 2-(((2R,3R,4S,5R)-5-(6-amino-2-chloro-9H-purin-9-yl)-4-fluoro-3-hydroxytetrahydrofuran-2-yl)methoxy)-2-(3-chloro-4-methoxybenzyl)malonic acid] — 2.5-fold higher, 183 nM
- Nc1nc(Cl)nc2c1ncn2[C@@H]1O[C@H](COC(Cc2ccc(S(N)(=O)=O)cc2)(C(=O)O)C(=O)O)[C@@H](O)[C@@H]1F [compound 86, 2-(((2R,3R,4S,5R)-5-(6-amino-2-chloro-9H-purin-9-yl)-4-fluoro-3-hydroxytetrahydrofuran-2-yl)methoxy)-2-(4-sulfamoylbenzyl)malonic acid] — within 1.5-fold, 62 nM
- Nc1nc(Cl)nc2c1ncn2[C@@H]1O[C@H](COC(Cc2ccc(C(=O)NCCC(=O)O)cc2)(C(=O)O)C(=O)O)[C@@H](O)[C@@H]1F [compound 87, 2-(((2R,3R,4S,5R)-5-(6-amino-2-chloro-9H-purin-9-yl)-4-fluoro-3-hydroxytetrahydro-furan-2-yl)methoxy)-2-(4-((2-carboxy-ethyl)carbamoyl)benzyl) malonic acid] — within 1.5-fold, 83 nM
- Nc1nc(Cl)nc2c1ncn2[C@@H]1O[C@H](COC(Cc2ccc3oc(C(=O)O)cc3c2)(C(=O)O)C(=O)O)[C@@H](O)[C@@H]1F [compound 88, 2-(((2R,3R,4S,5R)-5-(6-amino-2-chloro-9H-purin-9-yl)-4-fluoro-3-hydroxytetrahydro-furan-2-yl)methoxy)-2-((2-carboxybenzofuran-5-yl)methyl)malonic acid] — 3.2-fold higher, 238 nM
- Nc1nc(Cl)nc2c1ncn2[C@@H]1O[C@H](COC(Cc2ccc(OCC(F)(F)F)cc2)(C(=O)O)C(=O)O)[C@@H](O)[C@@H]1F [compound 89, 2-(((2R,3R,4S,5R)-5-(6-amino-2-chloro-9H-purin-9-yl)-4-fluoro-3-hydroxytetrahydrofuran-2-yl)methoxy)-2-(4-(2,2,2-trifluoroethoxy)benzyl) malonic acid] — 1.7-fold lower, 43 nM
- Nc1nc(Cl)nc2c1ncn2[C@@H]1O[C@H](COC(Cc2ccc(OCC(=O)O)cc2)(C(=O)O)C(=O)O)[C@@H](O)[C@@H]1F [compound 92, 2-(((2R,3R,4S,5R)-5-(6-amino-2-chloro-9H-purin-9-yl)-4-fluoro-3-hydroxytetrahydrofuran-2-yl)methoxy)-2-(4-(carboxymethoxy)benzyl) malonic acid] — 2.3-fold higher, 172 nM
- Cc1nnc(-c2ccc(CC(OC[C@H]3O[C@@H](n4cnc5c(N)nc(Cl)nc54)[C@@H](F)[C@@H]3O)(C(=O)O)C(=O)O)cc2)o1 [compound 94, 2-(((2R,3R,4S,5R)-5-(6-amino-2-chloro-9H-purin-9-yl)-4-fluoro-3-hydroxytetrahydrofuran-2-yl)methoxy)-2-(4-(5-methyl-1,3,4-oxadiazol-2-yl)benzyl) malonic acid] — 12-fold higher, 906 nM
- N#Cc1ccccc1-c1ccc(CC(OC[C@H]2O[C@@H](n3cnc4c(N)nc(Cl)nc43)[C@@H](F)[C@@H]2O)(C(=O)O)C(=O)O)cc1 [compound 95] — within 1.5-fold, 105 nM
- Nc1nc(Cl)nc2c1ncn2[C@@H]1O[C@H](COC(Cc2csc3ccc(Cl)cc23)(C(=O)O)C(=O)O)[C@@H](O)[C@@H]1F [compound 96, 2-(((2R,3R,4S,5R)-5-(6-amino-2-chloro-9H-purin-9-yl)-4-fluoro-3-hydroxytetrahydrofuran-2-yl)methoxy)-2-((5-chlorobenzo[b]thiophen-3-yl)methyl)-malonic acid] — 11-fold higher, 788 nM
- Nc1nc(Cl)nc2c1ncn2[C@@H]1O[C@H](COC(Cc2nc3ccccc3s2)(C(=O)O)C(=O)O)[C@@H](O)[C@@H]1F [compound 97, 2-(((2R,3R,4S,5R)-5-(6-amino-2-chloro-9H-purin-9-yl)-4-fluoro-3-hydroxytetrahydrofuran-2-yl)methoxy)-2-(benzo[d]thiazol-2-ylmethyl)malonic acid] — 46-fold higher, 3430 nM
- CNC(=O)c1ccc(CC(OC[C@H]2O[C@@H](n3cnc4c(N)nc(Cl)nc43)[C@@H](F)[C@@H]2O)(C(=O)O)C(=O)O)cc1 [compound 98, 2-(((2R,3R,4S,5R)-5-(6-amino-2-chloro-9H-purin-9-yl)-4-fluoro-3-hydroxytetrahydrofuran-2-yl)methoxy)-2-(4-(methylcarbamoyl)benzyl) malonic acid] — 6.9-fold higher, 512 nM
- C[C@@]1(O)[C@H](O)[C@@H](COC(Cc2ccc(C(=O)O)cc2)(C(=O)O)C(=O)O)O[C@H]1n1cnc2c(N)nc(Cl)nc21 [compound 107] — 570-fold higher, 42500 nM
- C[C@@]1(F)[C@H](O)[C@@H](COC(Cc2ccc(C(=O)O)cc2)(C(=O)O)C(=O)O)O[C@H]1n1cnc2c(N)nc(Cl)nc21 [compound 117] — 860-fold higher, 63900 nM
- CCOC(=O)C(Cc1ccccc1)(OC[C@@H]1C[C@H](F)[C@H](n2cnc3c(N)nc(Cl)nc32)O1)C(=O)OCC [compound 118] — higher, > 200000 nM
- Nc1nc(Cl)nc2c1ncn2[C@@H]1O[C@H](COC(Cc2ccccc2)(C(=O)O)C(=O)O)C[C@@H]1F [compound 119] — 380-fold higher, 28000 nM
- COc1nc(N)c2ncn([C@@H]3O[C@H](COC(Cc4ccccc4)(C(=O)O)C(=O)O)C[C@@H]3F)c2n1 [compound 120] — 740-fold higher, 54500 nM
- Nc1nc(Cl)nc2c1ncn2[C@@H]1O[C@H](COC(Cc2c(F)cc(Cl)cc2F)(C(=O)O)C(=O)O)[C@@H](O)[C@@H]1F [compound 126] — 340-fold higher, 25300 nM
- Nc1ncnc2c1ncn2[C@@H]1O[C@H](COC(Cc2cccc(OC(F)(F)F)c2)(C(=O)O)C(=O)OCCN2CCOCC2)[C@@H](O)[C@@H]1F (some centres unmarked) [compound 139] — 220-fold higher, 16500 nM
- Nc1nc(Cl)nc2c1ncn2[C@@H]1O[C@H](COC(Cc2ccc(NC(=O)c3cccs3)cc2)(C(=O)O)C(=O)O)[C@@H](O)[C@@H]1F [compound 140] — 2.5-fold lower, 30 nM
- Nc1nc(Cl)nc2c1ncn2[C@@H]1O[C@H](COC(Cc2ccc(NC(=O)c3cccs3)cc2)(C(=O)O)C(=O)O)[C@@H](O)[C@@H]1F [compound 141] — within 1.5-fold, 60 nM
- Nc1nc(Cl)nc2c1ncn2[C@@H]1O[C@H](COC(Cc2ccc(-c3cccnc3)cc2)(C(=O)O)C(=O)O)[C@@H](O)[C@@H]1F [compound 142] — within 1.5-fold, 67 nM
- Nc1nc(Cl)nc2c1ncn2[C@@H]1O[C@H](COC(Cc2ccc(-c3cncnc3)cc2)(C(=O)O)C(=O)O)[C@@H](O)[C@@H]1F [compound 143] — 1.8-fold higher, 136 nM
- Nc1nc(Cl)nc2c1ncn2[C@@H]1O[C@H](COC(Cc2ccc(-c3ccc(F)cc3)cc2)(C(=O)O)C(=O)O)[C@@H](O)[C@@H]1F [compound 144] — within 1.5-fold, 65 nM
- Nc1nc(Cl)nc2c1ncn2[C@@H]1O[C@H](COC(Cc2ccc(C(=O)O)cc2)(C(=O)O)C(=O)O)[C@H](O)[C@@H]1F [compound 145] — within 1.5-fold, 106 nM
- Nc1nc(Cl)nc2c1ncn2[C@@H]1O[C@H](COC(Cc2ccccc2)(C(=O)O)C(=O)O)[C@@H](O)[C@@H]1Cl [compound 146] — 2.4-fold higher, 181 nM
- Nc1nc(Cl)nc2c1ncn2[C@@H]1O[C@H](COC(Cc2ccccc2)(C(=O)O)C(=O)O)[C@@H](O)[C@@H]1F [compound 169] — 1.6-fold higher, 119 nM
- Nc1nc(Cl)nc2c1ncn2[C@@H]1O[C@H](COC(Cc2ccc(C(=O)O)cc2)(C(=O)O)C(=O)O)[C@@H](O)[C@@H]1F [compound 171] — 1.5-fold higher, 114 nM
- CCOC(=O)C(Cc1ccccc1)(OC[C@H]1O[C@@H](n2cnc3c(N)nc(Cl)nc32)[C@H](O)[C@@H]1O)c1nn[nH]n1 (some centres unmarked) [compound 193] — higher, > 50000 nM
